Like-named read-outs stand apart in the source and are kept apart here.
Experiments:
Type in all cases: cell-based
[1] = test system: Primary human foreskin fibroblasts (BJ, CCD1079Sk, HFF); conditions: for luciferase expression after transient treatment: BJ and CCD1079SK
MEFs = assay: GFP expression by flow cytometry (MFI) in murine fibroblasts electroporated with IVT RNA; conditions: 0.5 μM to 2 μM, mouse fibroblasts
Protocol: (AB) Primary human foreskin fibroblasts from different donors and suppliers (panel A: BJ fibroblasts; panel B CCD1079Sk) and (C) MEFs were electroporated with 0.5 μg IVT RNA encoding for firefly luciferase and 1.25 μg IVT RNA encoding for enhanced GFP (eGFP). The cells were plated into […] at a density of 250000 cells/well. The cells were either left untreated or incubated with increasing amounts of C13H8N4OS (PKR-inhibitor) ranging from 0.5 μM to 2 μM as indicated in the panel legends. GFP expression was measured by flow cytometry at the indicated time points. The mean fluorescence intensity (MFI) of the transfected GFP-positive cell fractions is shown.
Transfer of IVT-RNA into cells was performed by electroporation (EP). […]
For quantification of d2eGFP and eGFP protein, cells were washed in PBS, fixed using PBS supplemented with 2% formaldehyde and analyzed by flow cytometry on a FACS Canto II flow cytometer (BD Biosciences, Heidelberg, Germany). Gating was performed on living cells and mean fluorescence intensity (MFI) of GFP expressing cell populations was quantified using FlowJo software (Tree Star, Ashland, Oreg., USA). […] Gating was performed on living CD4+ and CD8+ T-cells and GFP expression and MFI of both T-cell subpopulations was determined by flow cytometry. […]

[2] = test system: human foreskin fibroblasts; assay: Luciferase activity after lipofection (RNAiMAX) of IVT RNA; conditions: increasing concentrations
Protocol: 1.2 μg 5′-triphosphorylated and non-modified IVT RNA (0.8 μg encoding luciferase, 0.4 μg GFP) was packaged with 6 μl RNAiMAX transfection reagent (Invitrogen) and transfected into human foreskin fibroblasts and the medium supplemented with increasing concentrations of C13H8N4OS. At the indicated time points the cells were lysed and luciferase activity of the lysates was measured. […] This effect was dose-dependent.
To study whether C13H8N4OS could also enhance translation upon liposomal IVT RNA transfer, 1.2 μg 5′-triphosphorylated and non-modified IVT RNA (0.8 μg encoding luciferase, 0.4 μg GFP) was packaged with 6 μl RNAiMAX transfection reagent (Invitrogen) and transfected into human foreskin fibroblasts. After 3 h incubation with the transfection mixture, the medium was renewed and supplemented with increasing concentrations of C13H8N4OS. At the time points indicated in FIG. 15 the cells were lysed using luciferase stabilizing passive lysis buffer (Promega) according to the manufacturer's instructions. By the end of the time course, luciferase activity of all lysates was measured. […] This effect was dose-dependent. One of three independently performed experiments is shown. Thus, the effect of C13H8N4OS on translation of IVT RNA is not restricted to the delivery via electroporation. […]

Q: For `O=C1Nc2ccc3ncsc3c2/C1=C/c1c[nH]cn1` [C13H8N4OS, 6,8-dihydro-8-(1H-imidazol-5-ylmethylene)-7H-pyrrolo[2,3-g]benzothiazol-7-one], which luciferase expression ([1]; 0.5 μM to 2 μM, human fibroblasts, after electroporation) is on record?
A: Its luciferase expression is “dose dependent increase”.

Q: And the “luciferase expression on additional application of inhibitor” value ([1]; 2 μM C13H8N4OS on CCD1079SK cotransfected with E3/K3, vs untreated controls)?
A: Its value is “additive increase of luciferase expression and a stabilization”.

Q: And the “luciferase expression after transient treatment” value ([1]; 2 μM, 7 h incubation period)?
A: The value was “did not results in a significant increase of luciferase expression”.

Q: And the “luciferase expression after transient treatment” value ([1]; 2 μM, 24 h treatment)?
A: The value was “rapidly reversed after removal of the inhibitors”.

Q: And the “luciferase expression after transient treatment” value ([1]; 2 μM, 48 h treatment)?
A: The value was “less efficient than a permanent treatment”.

Q: What about the “luciferase expression from modified (5mC and PU) IVT RNA” value ([1]; 2 μM, CCD1079Sk, 7 h to 72 h) of the same compound?
A: The value was “further increases and stabilizes”.

Q: What about the “luciferase expression from unmodified IVT-RNA” value ([1]; 2 μM, CCD1079Sk, 7 h to 72 h) of the same compound?
A: Its value is “greatly enhanced and stabilized”.

Q: And the “duration of high luciferase expression levels” value ([1]; 2 μM, permanent inhibition)?
A: The value was 5 days.

Q: What about the “stabilization of luciferase expression” value ([1]; highest concentration used (2 μM)) of the same compound?
A: The value was “high level of stabilization”.

Q: What about the “GFP expression (MFI)” value (MEFs) of the same compound?
A: The value was “dose dependent increase”.

Q: And the “dose dependence of the effect on translation of luciferase” value [2]?
A: Its value is “dose-dependent”.

Q: What about the “translation of luciferase after liposomal IVT RNA transfer” value [2] of the same compound?
A: Its value is “stabilizing effect on translation of luciferase”.
